Source: PubChem BioAssay AID330 (DTP/NCI, 2004)
Where “and” joins values, the source holds several entries; their conditions need not be identical. Equal values may be shown once. Inconclusive results and toxic doses are left out. The calls were made as follows: active = survival T/C of 150% or more; inactive = T/C below 125% in these data.

Test system: P388 leukemia ip, CD2F1 mice, survival T/C
Assay: NCI In Vivo Anticancer Drug Screen. Data for tumor model P388 Leukemia (intraperitoneal) in CD2F1 (CDF1) mice
Conditions: endpoint: median survival time, higher = longer survival
How it was run: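 Mice carrying the transplanted tumor received test compound or vehicle. Survival was recorded in each group, and the value is the treated-group measurement divided by that of the vehicle-treated control group.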

[1] = dose: 100.0 mg/kg/injection, schedule: Q01DX009 (ip), vehicle: saline with Tween-80
[2] = dose: 200.0 mg/kg/injection, schedule: Q01DX009 (ip), vehicle: saline with Tween-80
[3] = dose: 400.0 mg/kg/injection, schedule: Q01DX009 (ip), vehicle: saline with Tween-80
[4] = dose: 100.0 mg/kg/injection, schedule: Q04DX003 (ip), vehicle: saline with Tween-80
[5] = dose: 200.0 mg/kg/injection, schedule: Q04DX003 (ip), vehicle: saline with Tween-80
[6] = dose: 50.0 mg/kg/injection, schedule: Q01DX005 (ip), vehicle: saline with Tween-80
[7] = dose: 100.0 mg/kg/injection, schedule: Q01DX005 (ip), vehicle: saline with Tween-80
[8] = dose: 200.0 mg/kg/injection, schedule: Q01DX005 (ip), vehicle: saline with Tween-80
[9] = dose: 400.0 mg/kg/injection, schedule: Q04DX003 (ip), vehicle: saline with Tween-80
[10] = dose: 50.0 mg/kg/injection, schedule: Q01DX009 (ip), vehicle: Klucel (hydroxypropylcellulose) (HPC)
[11] = dose: 100.0 mg/kg/injection, schedule: Q01DX009 (ip), vehicle: Klucel (hydroxypropylcellulose) (HPC)
[12] = dose: 50.0 mg/kg/injection, schedule: Q01DX009 (ip), vehicle: saline
[13] = dose: 100.0 mg/kg/injection, schedule: Q01DX009 (ip), vehicle: saline

Measured: T/C

CCOC(=O)[C@]1(Br)CC[C@]1(Br)C(=O)OCC
inactive: dose: 50.0 mg/kg/injection, schedule: Q01DX009 (ip), vehicle: saline with Tween-80 106 % of control and 121 % of control | [1] 112 % of control and 114 % of control | [2] 117 % of control and 122 % of control | [3] 123 % of control

Clc1cccc(Cl)c1C(Nc1nncs1)Nc1nncs1
inactive: dose: 50.0 mg/kg/injection, schedule: Q04DX002 (ip), vehicle: saline with Tween-80 124 % of control
active: dose: 200.0 mg/kg/injection, schedule: Q04DX002 (ip), vehicle: saline with Tween-80 162 % of control and 174 % of control | dose: 400.0 mg/kg/injection, schedule: Q04DX002 (ip), vehicle: saline with Tween-80 186 % of control and 192 % of control

CCCCN(C)N=Nc1c(C(N)=O)n[nH]c1C
inactive: dose: 44.0 mg/kg/injection, schedule: Q04DX003 (ip), vehicle: saline with Tween-80 122 % of control | [5] 90 % of control
active: [4] 150 % of control

CCN(CC)CCNc1ccc(CO)c2oc3ccc(OS(=O)(=O)c4ccc(C)cc4)cc3c(=O)c12
inactive: [6] 99 % of control | [7] 106 % of control | [8] 122 % of control

CC(C)C(Sc1nc(N)nc2nc[nH]c12)C(=O)O (stereo not given)
inactive: [1] 95 % of control | [4] 95 % of control | [2] 100 % of control | [5] 100 % of control | [3] 104 % of control | [9] 95 % of control

CCOC(=O)CC(Cc1cc(OC)ccc1OC)(C(C)=O)C(C)=O
inactive: dose: 25.0 mg/kg/injection, schedule: Q01DX009 (ip), vehicle: other 100 % of control | dose: 50.0 mg/kg/injection, schedule: Q01DX009 (ip), vehicle: other 100 % of control | dose: 100.0 mg/kg/injection, schedule: Q01DX009 (ip), vehicle: other 100 % of control | dose: 200.0 mg/kg/injection, schedule: Q01DX009 (ip), vehicle: other 98 % of control | dose: 400.0 mg/kg/injection, schedule: Q01DX009 (ip), vehicle: other 100 % of control

COc1ccc(C(CC(=O)c2ccccc2)[Se]c2ccccc2)cc1 (stereo not given)
inactive: dose: 25.0 mg/kg/injection, schedule: Q01DX009 (ip), vehicle: Klucel (hydroxypropylcellulose) (HPC) 105 % of control | [10] 106 % of control | [11] 105 % of control

O=c1[nH]c2cc([N+](=O)[O-])ccc2o1
inactive: [10] 102 % of control | [11] 105 % of control | dose: 200.0 mg/kg/injection, schedule: Q01DX009 (ip), vehicle: Klucel (hydroxypropylcellulose) (HPC) 105 % of control

CCOC(=O)c1cn(C)c2c1C(O)=C(C(=O)OC)CC(=O)N2
inactive: [4] 95 % of control | [5] 100 % of control | [9] 117 % of control

CCC1(c2ccccc2)C(C#N)C(=O)NC(=O)C1C#N (stereo not given)
inactive: dose: 60.0 mg/kg/injection, schedule: Q01DX005 (ip), vehicle: saline with Tween-80 106 % of control | dose: 120.0 mg/kg/injection, schedule: Q01DX005 (ip), vehicle: saline with Tween-80 99 % of control | dose: 240.0 mg/kg/injection, schedule: Q01DX005 (ip), vehicle: saline with Tween-80 101 % of control

COc1ccc(/C(C)=N/OC(=O)c2sc3ccccc3c2Cl)cc1CN1CCOCC1
inactive: [12] 93 % of control | [13] 97 % of control | dose: 200.0 mg/kg/injection, schedule: Q01DX009 (ip), vehicle: saline 100 % of control

CSC(C(=O)O)c1cc(-c2c(Cl)cccc2Cl)no1 (stereo not given)
inactive: [6] 104 % of control | [7] 105 % of control | [8] 107 % of control

c1ccc(Cn2cc(CCc3ccncc3)c3ccccc32)cc1
inactive: dose: 25.0 mg/kg/injection, schedule: Q01DX009 (ip), vehicle: saline 100 % of control | [12] 100 % of control | [13] 100 % of control
